Values after ≈ are worked out from the molar mass of the structure shown. Like-named read-outs stand apart in the source and are kept apart here. Starred links: 1 amine or outer side, 2 acyl side, 3 side chain; linkers in the order of their positions; H or OH if unused. Positions of bridges follow the written chain, without caps; N, C: chain ends. Non-standard residues stand in square brackets, D forms with d. Residues, ends and D or L forms follow the SMILES beside them. X1 = CC(C)CCCCCCCCC[C@H](CC(=O)[*:1])O[*:2]
Assays:
[1] = tested on: Staphylococcus epidermidis; test: Antimicrobial test for surfactin (MIC, 96-well broth dilution); assay type: cell-based; details: 16 hrs at 37° C., read-out: minimum inhibitory concentration (MIC)
Description: (§1) Escherichia coli DH5α, Vibrio harveyi, Vibrio alginolyticus, Vibrio anguillarum, Vibrio salmonicida, Aeromonas hydrophila and Staphylococcus epidermidis are separately inoculate onto LBA (E. coli DH5α) or TSA (+1.5% NaCl) and incubate at 37° C. for 16 hrs. Scrap off and dissolve the colonies in designated medium. When OD540 is at 1 (the concentration is around 1×10^9 colonies/c.c.), take 500 μl of the bacterial culture and add to 500 μl of LB or TSB (+1.5% NaCl) to make the bacterial concentration at […]; add 130 μl of the bacterial culture to each well of a 96-well plate, the concentration of bacterial culture is 1×10^4.5 colonies/c.c., before addition of 20 μl of chemically synthesized antimicrobial peptides at various concentrations. After 16 hrs of incubation at 37° C., the bacterial culture that is clear indicates the lowest concentration of the antimicrobial peptide, that is, minimum inhibitory concentration (MIC).

Vibrio anguillarum = test: as above; assay type: cell-based; details: 16 hrs at 37° C., read-out: minimum inhibitory concentration (MIC)
Description: as §1

Aeromonas hydrophila = test: as above; assay type: cell-based; details: 16 hrs at 37° C., read-out: minimum inhibitory concentration (MIC)
Description: as §1

Escherichia coli DH5α = test: as above; assay type: cell-based; details: 16 h, E. coli, 16 hrs at 37° C., read-out: minimum inhibitory concentration (MIC)
Description: as §1

Vibrio harveyi = test: as above; assay type: cell-based; details: 16 hrs at 37° C., read-out: minimum inhibitory concentration (MIC)
Description: as §1

Vibrio alginolyticus = test: as above; assay type: cell-based; details: 16 hrs at 37° C., read-out: minimum inhibitory concentration (MIC)
Description: as §1

Vibrio salmonicida = test: as above; assay type: cell-based; details: 16 hrs at 37° C., read-out: minimum inhibitory concentration (MIC)
Description: as §1

[2] = Antimicrobial test for surfactin, summary statement over the tested bacteria; assay type: cell-based; details: text summary of Table 2, all tested bacteria; read-out: minimum inhibitory concentration (MIC)
Description: as §1

[3] = literature value, test organism not given; cited from earlier work

## CC(C)CCCCCCCCC[C@@H]1CC(=O)N[C@@H](CCC(=O)O)C(=O)N[C@@H](CC(C)C)C(=O)N[C@H](CC(C)C)C(=O)N[C@@H](C(C)C)C(=O)N[C@@H](CC(=O)O)C(=O)N[C@H](CC(C)C)C(=O)N[C@@H](CC(C)C)C(=O)O1 [Bacillus subtilis subsp. ATCC21332, surfactin] (EL[dL]VD[dL]L; linker N-C via X1)
[1]; 16 h
  MIC: 129 µM (≈ 133 µg/mL)
Vibrio anguillarum; Vibrio anguillarum, 16 h
  MIC: 129 µM (≈ 133 µg/mL)
Aeromonas hydrophila; Aeromonas hydrophila, 16 h
  MIC: 129 µM (≈ 133 µg/mL)
Escherichia coli DH5α
  MIC: 193 µM (≈ 200 µg/mL)
Vibrio harveyi; 16 h
  MIC: 129 µM (≈ 133 µg/mL)
Vibrio alginolyticus; 16 h
  MIC: 129 µM (≈ 133 µg/mL)
Vibrio salmonicida; Aliivibrio salmonicida, 16 h
  MIC: 129 µM (≈ 133 µg/mL)

## CC(C)CCCCCCCCC[C@@H]1CC(=O)N[C@@H](CCC(=O)O)C(=O)N[C@@H](CC(C)C)C(=O)N[C@H](CC(C)C)C(=O)N[C@@H](C(C)C)C(=O)N[C@@H](CC(=O)O)C(=O)N[C@H](CC(C)C)C(=O)N[C@@H](CC(C)C)C(=O)O1 [High-yield mutant strain, surfactin] (EL[dL]VD[dL]L; linker N-C via X1)
[2]
  MIC: 96.5 µM (≈ 100 µg/mL)
[1]
  MIC: 96.5 µM (≈ 100 µg/mL)
Vibrio anguillarum
  MIC: 96.5 µM (≈ 100 µg/mL)
Aeromonas hydrophila
  MIC: 96.5 µM (≈ 100 µg/mL)
Vibrio harveyi
  MIC: 96.5 µM (≈ 100 µg/mL)
Vibrio alginolyticus
  MIC: 96.5 µM (≈ 100 µg/mL)
Vibrio salmonicida
  MIC: 96.5 µM (≈ 100 µg/mL)

## CC(C)CCCCCCCCC[C@@H]1CC(=O)N[C@@H](CCC(=O)O)C(=O)N[C@@H](CC(C)C)C(=O)N[C@H](CC(C)C)C(=O)N[C@@H](C(C)C)C(=O)N[C@@H](CC(=O)O)C(=O)N[C@H](CC(C)C)C(=O)N[C@@H](CC(C)C)C(=O)O1 [surfactin] (EL[dL]VD[dL]L; linker N-C via X1)
[3]
  minimum inhibitory concentration (MIC): 50 µg/mL (≈ 48.2 µM)

— patent US9689017B2, “Method of semi-solid state fermentation for producing surfactin from a mutant strain of Bacillus subtilis subsp” (priority 2014, dated 2017)
